Assay results: US10385019B2, “Inhibitors of EGFR and methods of use thereof” (Dana-Farber Cancer Institute, Inc., priority 2015, dated 2019)
pIC50: −log10 of the molar value. Read-outs that look alike come from different tables or passages of the source.

Columns and labels:
Assay in all cases: Ba/F3 cell proliferation model
Assay type in all cases: cell-based, murine
[1] = target: EGFR T790M/L858R Ba/F3 cell line (Homo sapiens, UniProt P00533, T790M/L858R, cells depend on it); conditions: for Activity (% inhibition): combined with cetuximab (% cetuximab, 1.0 μM drug concentration with 1.0 μg/mL cetuximab)
EGFR T790M/L858R Ba/F3 cell line, sequence (P00533 whole entry T790M/L858R): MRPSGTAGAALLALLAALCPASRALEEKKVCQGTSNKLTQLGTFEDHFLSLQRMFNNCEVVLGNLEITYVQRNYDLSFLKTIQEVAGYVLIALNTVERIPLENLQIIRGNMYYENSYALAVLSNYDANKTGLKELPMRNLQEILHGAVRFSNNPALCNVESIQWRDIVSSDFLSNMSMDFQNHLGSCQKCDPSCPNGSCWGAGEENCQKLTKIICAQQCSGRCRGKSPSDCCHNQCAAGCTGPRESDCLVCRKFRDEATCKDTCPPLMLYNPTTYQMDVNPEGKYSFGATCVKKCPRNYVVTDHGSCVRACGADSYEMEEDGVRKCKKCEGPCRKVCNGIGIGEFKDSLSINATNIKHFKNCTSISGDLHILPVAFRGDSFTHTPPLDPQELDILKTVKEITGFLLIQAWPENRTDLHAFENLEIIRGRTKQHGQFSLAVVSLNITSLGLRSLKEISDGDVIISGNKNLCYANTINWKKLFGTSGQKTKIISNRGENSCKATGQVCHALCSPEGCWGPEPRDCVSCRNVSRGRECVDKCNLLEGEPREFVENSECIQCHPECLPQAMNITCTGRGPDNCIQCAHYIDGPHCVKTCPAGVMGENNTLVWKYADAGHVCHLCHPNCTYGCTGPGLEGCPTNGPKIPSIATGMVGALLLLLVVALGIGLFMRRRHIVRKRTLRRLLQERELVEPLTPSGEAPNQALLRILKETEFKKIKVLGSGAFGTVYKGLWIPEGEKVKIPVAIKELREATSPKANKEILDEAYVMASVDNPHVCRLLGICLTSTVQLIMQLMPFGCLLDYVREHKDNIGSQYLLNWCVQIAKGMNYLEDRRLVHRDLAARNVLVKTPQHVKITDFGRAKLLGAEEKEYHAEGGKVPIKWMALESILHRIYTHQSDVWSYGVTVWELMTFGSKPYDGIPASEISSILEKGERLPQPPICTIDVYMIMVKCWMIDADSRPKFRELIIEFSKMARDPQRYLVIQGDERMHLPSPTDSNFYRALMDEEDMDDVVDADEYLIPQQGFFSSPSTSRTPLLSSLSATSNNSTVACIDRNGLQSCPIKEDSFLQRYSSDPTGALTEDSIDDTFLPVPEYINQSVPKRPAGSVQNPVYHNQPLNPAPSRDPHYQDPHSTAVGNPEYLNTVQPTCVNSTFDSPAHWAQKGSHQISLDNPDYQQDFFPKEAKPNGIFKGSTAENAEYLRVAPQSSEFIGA
How it was run: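 Murine Ba/F3 cells made IL-3-independent by retroviral EGFR L858R/T790M, selected in puromycin (2 μg/ml) and kept in RPMI 1640 with 10% FBS. Cells were exposed to serially diluted compound for 72 h, with growth read by MTS assay in six wells per point and ≥3 repeats. Sigmoidal dose-response non-linear regression gave the values.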

[2] = target: Del/T790M Ba/F3 cell line (Homo sapiens, UniProt P00533, DEL746-750/T790M, cells depend on it)
Del/T790M Ba/F3 cell line, sequence (P00533 with tags, fused parts or gaps DEL746-750/T790M): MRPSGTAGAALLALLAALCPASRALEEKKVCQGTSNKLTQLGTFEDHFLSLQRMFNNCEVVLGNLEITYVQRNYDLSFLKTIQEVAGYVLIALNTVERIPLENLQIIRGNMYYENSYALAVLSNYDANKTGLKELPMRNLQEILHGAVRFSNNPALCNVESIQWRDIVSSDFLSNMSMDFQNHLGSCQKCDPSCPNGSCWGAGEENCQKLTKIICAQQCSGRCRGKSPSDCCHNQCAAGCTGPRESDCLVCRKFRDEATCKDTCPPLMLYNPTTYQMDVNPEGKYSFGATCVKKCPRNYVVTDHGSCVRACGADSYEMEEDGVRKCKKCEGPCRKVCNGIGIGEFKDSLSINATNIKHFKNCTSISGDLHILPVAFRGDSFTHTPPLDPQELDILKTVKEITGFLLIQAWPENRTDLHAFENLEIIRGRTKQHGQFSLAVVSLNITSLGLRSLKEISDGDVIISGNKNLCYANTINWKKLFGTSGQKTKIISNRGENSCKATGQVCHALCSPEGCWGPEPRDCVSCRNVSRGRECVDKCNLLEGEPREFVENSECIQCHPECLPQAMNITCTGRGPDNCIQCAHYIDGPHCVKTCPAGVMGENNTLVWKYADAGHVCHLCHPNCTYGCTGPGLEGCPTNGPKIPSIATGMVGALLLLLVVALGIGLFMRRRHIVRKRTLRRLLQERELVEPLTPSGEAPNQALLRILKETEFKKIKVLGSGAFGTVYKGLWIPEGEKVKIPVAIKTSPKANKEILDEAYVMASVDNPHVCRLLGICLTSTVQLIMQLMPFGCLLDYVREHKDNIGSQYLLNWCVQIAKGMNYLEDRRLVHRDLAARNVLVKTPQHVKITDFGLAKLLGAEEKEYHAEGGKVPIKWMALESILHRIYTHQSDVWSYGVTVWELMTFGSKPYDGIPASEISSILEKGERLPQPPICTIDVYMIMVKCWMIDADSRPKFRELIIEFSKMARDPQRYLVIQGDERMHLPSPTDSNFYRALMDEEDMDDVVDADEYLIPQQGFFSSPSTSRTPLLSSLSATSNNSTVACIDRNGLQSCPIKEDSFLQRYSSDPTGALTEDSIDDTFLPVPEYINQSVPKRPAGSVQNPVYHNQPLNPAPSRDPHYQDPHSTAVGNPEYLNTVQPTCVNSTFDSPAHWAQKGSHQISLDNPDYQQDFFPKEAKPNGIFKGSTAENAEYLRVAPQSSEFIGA
Excerpt: (§1) The selectivity between wild-type EGFR and EGFR containing one or more mutations as described herein can also be measured using cellular proliferation assays where cell proliferation is dependent on kinase activity. For example, murine Ba/F3 cells transfected with a suitable version of wild-type EGFR (such as VIII; containing a WT EGFR kinase domain), or Ba/F3 cells transfected with L858R/T790M, Del/T790M/L718Q, L858R/T790M/L718Q, L858R/T790M/C797S, Del/T790M/C797S, L858R/T790M/I941R, or Exon 19 deletion/T790M can be used.
(§2) Cell lines are plated in media. The compounds of the present disclosure are then serially diluted and transferred to the cells. Cell viability is measured via a luminescent readout. Data is analyzed by non-linear regression curve-fitting.
(§3) The EGFR mutant L858R, Del E746_A750, L858R/T790M, DelE746_A750/T790M, L858R/T790M/C797S and Del/T790M/C797S Ba/F3 cells have been previously described (Zhou, W., Ercan, D., Chen, L., Yun, C. H., Li, D., Capelletti, M., Cortot, A. B., Chirieac, L., Iacob, R. E., Padera, R., et al. “Novel mutant-selective EGFR kinase inhibitors against EGFR T790M,” Nature 462, (2009), 1070-1074). All cell lines were maintained in RPMI 1640 (Cellgro; Mediatech Inc., Herndon, Calif.) supplemented with 10% FBS 100 units/mL penicillin, 100 units/mL streptomycin, and 2 mM glutamine. L858R cells were maintained in ACL-4 media (Invitrogen, Carlsbad, Calif.) supplemented with 5% FBS, 100 units/mL penicillin, 100 units/mL streptomycin, and 2 mM glutamine. The EGFR I941R mutation was introduced via site directed mutagenesis using the Quick Change Site-Directed Mutagenesis kit (Stratagene; La Jolla, Calif.) according to the manufacturer's instructions. All constructs were confirmed by DNA sequencing. The constructs were shuttled into the retroviral vector JP 1540 using the BD Creator™ System (BD Biosciences). Ba/F3 cells were infected with retrovirus and according to standard protocols, as described previously (Zhou et al, Nature 2009). Stable clones were obtained by selection in puromycin (2 μg/ml).
(§4) Growth and inhibition of growth was assessed by MTS assay and was performed according to previously established methods (Zhou et al., Nature 2009). The MTS assay is a colorimetric method for determining the number of viable cells that is based on the bioreduction of MTS by cells to a formazan product that is soluble in cell culture medium and can be detected spectrophotometrically. Ba/F3 cells of different EGFR genotypes were exposed to treatment for 72 hours and the number of cells used per experiment determined empirically and has been previously established (Zhou et al., Nature 2009). All experimental points were set up in six wells and all experiments were repeated at least three times. […] The curves were fitted using a non-linear regression model with a sigmoidal dose response.

[3] = test system: EGFR Parental Ba/F3 cell line; conditions: Mus musculus, BaF3; compound alone
Excerpt: as §1, §2, §3, §4

[4] = compound alone, read-out: L858R/T790M IC50
[5] = read-out: L858R/T790M Cetuximab IC50, in combination with Cetuximab
[6] = compound alone, read-out: Del/T790M IC50
[7] = read-out: Del/T790M Cetuximab IC50, in combination with Cetuximab

| SMILES | Activity (% inhibition) [1] | GI50 [1, 4] | GI50 [1, 5] | GI50 [2, 6] | GI50 [2, 7] | pIC50 [3] |
| --- | --- | --- | --- | --- | --- | --- |
| CN1CCN(c2ccc(-c3ccc4c(c3)C(=O)N([C@@H](C(=O)Nc3nccs3)c3ccccc3)C4)cc2)CC1 [Compound I-69, (R)-2-(6-(4-(4-methylpiperazin-1-yl)phenyl)-1-oxoisoindolin-2-yl)-2-phenyl-N-(thiazol-2-yl) acetamide] | D (a % inhibition of between about 0% to about 25%) | 1 to 10 µM | < 0.5 µM | 1 to 10 µM | 1 to 10 µM | 5.00 to 6.00 |
| O=C(Nc1nccs1)[C@H](c1ccccc1)N1Cc2ccc(-c3ccccc3F)cc2C1=O [Compound I-113, (S)-2-(6-(2-fluorophenyl)-1-oxoisoindolin-2-yl)-2-phenyl-N-(thiazol-2-yl)acetamide] | C (a % inhibition of between about 25% to about 50%) | > 10 µM | < 0.5 µM | > 10 µM | > 10 µM | < 5.00 |
| O=C(Nc1nccs1)[C@@H](c1ccccc1)N1Cc2ccc(-c3ccc(N4CCNCC4)cc3)cc2C1=O [Compound I-68, (R)-2-(1-oxo-6-(4-(piperazin-1-yl)phenyl)isoindolin-2-yl)-2-phenyl-N-(thiazol-2-yl)acetamide] | D (a % inhibition of between about 0% to about 25%) | 1 to 10 µM | < 0.5 µM | 1 to 10 µM | 1 to 10 µM | 5.00 to 6.00 |
| O=C(Nc1nccs1)[C@@H](c1ccccc1)N1Cc2ccc(-c3ccccc3F)cc2C1=O [Compound I-75, (R)-2-(6-(2-fluorophenyl)-1-oxoisoindolin-2-yl)-2-phenyl-N-(thiazol-2-yl)acetamide] | D (a % inhibition of between about 0% to about 25%) | > 10 µM | < 0.5 µM | 1 to 10 µM | 1 to 10 µM | < 5.00 |
| O=C(Nc1nccs1)[C@@H](c1ccccc1)N1Cc2ccc(-c3ccc4c(c3)OCCO4)cc2C1=O [Compound I-65, (R)-2-(6-(2,3-dihydrobenzo[b] [1,4]dioxin-6-yl)-1-oxoisoindolin-2-yl)-2-phenyl-N-(thiazol-2-yl)acetamide] | D (a % inhibition of between about 0% to about 25%) | > 10 µM | < 0.5 µM | > 10 µM | > 10 µM | < 5.00 |
| O=C(Nc1nccs1)C(c1cccc(F)c1)N1Cc2ccc(-c3ccc4[nH]ccc4c3)cc2C1=O (stereo not drawn) [Compound I-122, 2-(6-(1H-indol-5-yl)-1-oxoisoindolin-2-yl)-2-(3-fluorophenyl)-N-(thiazol-2-yl)acetamide] | D (a % inhibition of between about 0% to about 25%) | 1 to 10 µM | < 0.5 µM | > 10 µM | > 10 µM | 5.00 to 6.00 |
| O=C(Nc1nccs1)[C@H](c1ccccc1)N1Cc2ccc(-c3ccc(N4CCNCC4)cc3)cc2C1=O [Compound I-115, (S)-2-(1-oxo-6-(4-(piperazin-1-yl)phenyl)isoindolin-2-yl)-2-phenyl-N-(thiazol-2-yl)acetamide] | D (a % inhibition of between about 0% to about 25%) | 1 to 10 µM | < 0.5 µM | 1 to 10 µM | 1 to 10 µM | 5.00 to 6.00 |
| O=C(Nc1nccs1)[C@@H](c1ccccc1)N1Cc2ccc(-c3ccc(N4CCNCC4)cc3F)cc2C1=O [Compound I-120, (R)-2-(6-(2-fluoro-4-(piperazin-1-yl)phenyl)-1-oxoisoindolin-2-yl)-2-phenyl-N-(thiazol-2-yl)acetamide] | D (a % inhibition of between about 0% to about 25%) | 1 to 10 µM | < 0.5 µM | 1 to 10 µM | 1 to 10 µM | 5.00 to 6.00 |
| CC(C)(C)OC(=O)N1CCN(c2ccc(-c3ccc4c(c3)C(=O)N([C@@H](C(=O)Nc3nccs3)c3ccccc3)C4)c(F)c2)CC1 [Compound I-119, tert-butyl (R)-4-(3-fluoro-4-(3-oxo-2-(2-oxo-1-phenyl-2-(thiazol-2-ylamino)ethyl)isoindolin-5-yl)phenyl)piperazine-1-carboxylate] | D (a % inhibition of between about 0% to about 25%) | > 10 µM | < 0.5 µM | > 10 µM | > 10 µM | < 5.00 |
| CN(C)CCNC(=O)c1ccc(-c2ccc3c(c2)C(=O)N([C@@H](C(=O)Nc2nccs2)c2ccccc2)C3)cc1 [Compound I-81, (R)-N-(2-(dimethylamino)ethyl)-4-(3-oxo-2-(2-oxo-1-phenyl-2-(thiazol-2-ylamino)ethyl)isoindolin-5-yl)benzamide] | D (a % inhibition of between about 0% to about 25%) | 1 to 10 µM | < 0.5 µM | 1 to 10 µM | 1 to 10 µM | 5.00 to 6.00 |
| O=C(Nc1nccs1)[C@@H](c1ccccc1)N1Cc2ccc(-c3ccc(CN4CCNCC4)cc3)cc2C1=O [Compound I-121, (R)-2-(1-oxo-6-(4-(piperazin-1-ylmethyl)phenyl)isoindolin-2-yl)-2-phenyl-N-(thiazol-2-yl)acetamide] | D (a % inhibition of between about 0% to about 25%) | 1 to 10 µM | < 0.5 µM | 1 to 10 µM | 1 to 10 µM | 5.00 to 6.00 |
| O=C(Nc1nccs1)[C@H](c1ccccc1)N1Cc2ccc(-c3ccc4[nH]ccc4c3)cc2C1=O [Compound I-112, (S)-2-(6-(1H-indol-5-yl)-1-oxoisoindolin-2-yl)-2-phenyl-N-(thiazol-2-yl)acetamide] | D (a % inhibition of between about 0% to about 25%) | 1 to 10 µM | < 0.5 µM | > 10 µM | > 10 µM | < 5.00 |
| O=C(Nc1nccs1)[C@@H](c1ccccc1)N1Cc2ccc(-c3cnc4ccccc4c3)cc2C1=O [Compound I-70, (R)-2-(1-oxo-6-(quinolin-3-yl)isoindolin-2-yl)-2-phenyl-N-(thiazol-2-yl)acetamide] | D (a % inhibition of between about 0% to about 25%) | > 10 µM | < 0.5 µM | > 10 µM | > 10 µM | < 5.00 |
| COc1cc(OC)cc(-c2ccc3c(c2)C(=O)N([C@@H](C(=O)Nc2nccs2)c2ccccc2)C3)c1 [Compound I-79, (R)-2-(6-(3,5-dimethoxyphenyl)-1-oxoisoindolin-2-yl)-2-phenyl-N-(thiazol-2-yl)acetamide] | D (a % inhibition of between about 0% to about 25%) | > 10 µM | < 0.5 µM | > 10 µM | > 10 µM | < 5.00 |
| O=C(Nc1nccs1)[C@@H](c1ccccc1)N1Cc2ccc(-c3ccc4[nH]ccc4c3)cc2C1=O [Compound I-66, (R)-2-(6-(1H-indol-5-yl)-1-oxoisoindolin-2-yl)-2-phenyl-N-(thiazol-2-yl)acetamide] | D (a % inhibition of between about 0% to about 25%) | 1 to 10 µM | < 0.5 µM | > 10 µM | 1 to 10 µM | < 5.00 |
